Laboratory results reported in patent US8722849B2, “Polypeptides” (Novo Nordisk A/S, priority 2011, dated 2014).
Like-named read-outs stand apart in the source and are kept apart here. Starred links: 1 amine or outer side, 2 acyl side, 3 side chain; linkers in the order of their positions; H or OH if unused. Positions of bridges follow the written chain, without caps; N, C: chain ends. Residues, ends and D or L forms follow the SMILES beside them. *: point of attachment. C20 diacid = O=C(O)CCCCCCCCCCCCCCCCCCC(=O)*; γGlu = O=C(O)[C@H](CCC(=O)[*:2])N[*:1]

Legend:
[1] = target: T1, human calcitonin receptor (Homo sapiens, UniProt P30988); experiment: Assay (II)a functional CRE-luciferase assay, human calcitonin receptor; assay type: cell-based; conditions: Table 11; read-out: CTa receptor human EC50
T1 construct: expressed in transfected cells; host or cells: BHK570
T1 sequence (P30988 25-474): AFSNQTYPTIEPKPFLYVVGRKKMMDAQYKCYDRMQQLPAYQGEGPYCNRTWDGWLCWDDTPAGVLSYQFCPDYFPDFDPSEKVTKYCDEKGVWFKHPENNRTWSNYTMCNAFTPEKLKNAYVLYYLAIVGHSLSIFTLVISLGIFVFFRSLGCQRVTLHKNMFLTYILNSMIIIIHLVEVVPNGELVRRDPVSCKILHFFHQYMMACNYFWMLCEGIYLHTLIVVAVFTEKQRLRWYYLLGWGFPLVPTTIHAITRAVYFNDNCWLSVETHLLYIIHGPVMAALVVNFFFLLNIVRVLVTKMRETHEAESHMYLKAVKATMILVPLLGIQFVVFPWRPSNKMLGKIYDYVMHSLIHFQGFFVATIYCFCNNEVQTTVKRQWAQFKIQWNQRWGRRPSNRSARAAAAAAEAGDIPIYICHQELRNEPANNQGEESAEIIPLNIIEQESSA

[2] = Assay (III) ThT fibrillation assay for physical stability; assay type: physicochemical
Summary of the method: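 Freshly prepared formulations, pH-adjusted, with 1 μM ThT; four or eight replicates incubated at 37 °C under 960 rpm orbital shaking. Fluorescence (ex 444/em 485 nm) read every 20 min; […]. Peptide concentration measured by RP-HPLC before and after the run.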

[3] = Assay (IV) determination of solubility; assay type: physicochemical
Summary of the method: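 Polypeptide in water (~500 nmol/ml stock) was mixed 1:1 with 100 mM buffers from pH 3.0 to 8.0 (glycylglycine pH 3.0–5.0; bistrispropane pH 6.0–8.0). After 18 hours at room temperature, samples were centrifuged and the polypeptide remaining in solution was quantified by HPLC.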

[4] = target: T2, human amylin receptor (amylin 3(a) receptor: human calcitonin receptor + RAMP-3) (Homo sapiens, UniProt O60896+P30988); experiment: Assay (II)a functional CRE-luciferase assay, human amylin receptor; assay type: cell-based; conditions: Table 2; BHK amylin 3(a)-receptor/CRE-luc cells
T2 construct: expressed in transfected cells; host or cells: BHK570
T2 sequence (P30988 25-474): T1 sequence (P30988 25-474)
T2 sequence (O60896 24-148 partner): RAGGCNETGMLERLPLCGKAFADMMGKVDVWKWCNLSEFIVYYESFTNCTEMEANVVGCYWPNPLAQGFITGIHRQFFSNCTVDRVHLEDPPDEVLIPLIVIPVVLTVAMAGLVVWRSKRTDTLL

## CC[C@H](C)[C@H](NC(=O)[C@@H]1CCCN1C(=O)CNC(=O)[C@H](Cc1ccccc1)NC(=O)[C@H](CC(N)=O)NC(=O)[C@H](CCC(N)=O)NC(=O)[C@H](CO)NC(=O)[C@H](CO)NC(=O)[C@H](Cc1c[nH]cn1)NC(=O)[C@H](CCCNC(=N)N)NC(=O)[C@H](CC(C)C)NC(=O)[C@H](Cc1ccccc1)NC(=O)[C@H](CCC(=O)O)NC(=O)[C@H](C)NC(=O)[C@H](CC(C)C)NC(=O)[C@H](CCCNC(=N)N)NC(=O)[C@H](CCC(N)=O)NC(=O)[C@@H](NC(=O)[C@H](C)NC(=O)[C@@H]1CSSC[C@H](NC(=O)[C@H](CCC(=O)O)NC(=O)[C@H](CCCNC(=N)N)NC(=O)[C@H](CCC(=O)O)NC(=O)CC[C@H](NC(=O)CCCCCCCCCCCCCCCCCCC(=O)O)C(=O)O)C(=O)N[C@@H](CC(N)=O)C(=O)N[C@@H]([C@@H](C)O)C(=O)N[C@@H](C)C(=O)N[C@@H]([C@@H](C)O)C(=O)N1)[C@@H](C)O)C(=O)N[C@@H](CC(C)C)C(=O)N1CCC[C@H]1C(=O)N1CCC[C@H]1C(=O)N[C@H](C(=O)N[C@@H](CC(N)=O)C(=O)N[C@H](C(=O)NCC(=O)N[C@@H](CO)C(=O)N[C@@H](CCC(N)=O)C(=O)N[C@H](C(=O)N1CCC[C@H]1C(N)=O)[C@@H](C)O)C(C)C)[C@@H](C)O [Example 162, N-alpha-[(S)-4-Carboxy-4-(19-carboxynonadecanoylamino)butyryl]-Glu-Arg-[Glu1,Glu14,Arg17,Gln21,Gln35,Pro37]-pramlintide] ({C20 diacid-γGlu}-ERECNTATCATQRLAEFLRHSSQNFGPILPPTNVGSQTP-NH2; disulfide 4-9)
[1]
  EC50: 2.19 nM
[2]; Table 8
  ThT pH 4.0 lag time: >45 h
[2]; Table 9
  ThT pH 4.0 lag time: >45 h
[2]; ThT fibrillation assay
  ThT pH 4.0 lag time: >45 h
  ThT pH 4.0 lag time (h): >45 h
[3]; bistrispropane buffer, pH 6, pH 6.0, read-out: Solubility pH 6.0
  solubility at 18 h: > 200 µM
[3]; bistrispropane buffer, pH 6.5, pH 6.5, read-out: Solubility pH 6.5
  solubility at 18 h: > 200 µM
[3]; bistrispropane buffer, pH 7, pH 7.0, 18 hours at room temperature, Table 3, read-out: Solubility pH 7.0
  solubility at 18 h: > 200 µM
[3]; bistrispropane buffer, pH 7, pH 7.0, Table 8, read-out: Solubility pH 7.0
  solubility at 18 h: > 200 µM
[3]; bistrispropane buffer, pH 7, pH 7.0, Table 9, read-out: Solubility pH 7.0
  solubility at 18 h: > 200 µM
[3]; bistrispropane buffer, pH 7, pH 7.0, read-out: Solubility pH 7.0
  solubility at 18 h: > 200 µM
[3]; bistrispropane buffer, pH 7.5, pH 7.5, Table 9, read-out: Solubility pH 7.5
  solubility at 18 h: > 200 µM
[3]; bistrispropane buffer, pH 7.5, pH 7.5, read-out: Solubility pH 7.5
  solubility at 18 h: > 200 µM
[3]; bistrispropane buffer, pH 8, pH 8.0, read-out: Solubility pH 8.0
  solubility at 18 h: > 200 µM
[3]; glycylglycine buffer, pH 3, pH 3.0, read-out: Solubility pH 3.0
  solubility at 18 h: > 200 µM
[3]; glycylglycine buffer, pH 4, pH 4.0, 18 hours at room temperature, Table 2, read-out: Solubility pH 4.0
  solubility at 18 h: > 200 µM
[3]; glycylglycine buffer, pH 4, pH 4.0, read-out: Solubility pH 4.0
  solubility at 18 h: > 200 µM
[3]; glycylglycine buffer, pH 5, pH 5.0, read-out: Solubility pH 5.0
  solubility at 18 h: > 200 µM
[4]
  EC50: 0.411 nM
